Measurements: publication PMC5678437, “A new antagonist for CCR4 attenuates allergic lung inflammation in a mouse model of asthma” (Scientific Reports, 2017)

Tests used:
Format in all cases: cell-based
Details in all cases: compound as chemoattractant in lower chamber, 0.2, 1, 5, 25 μM
CCR1 = biological target: T1, CCR1 (Homo sapiens, UniProt P32246); assay: Chemotaxis assay for receptor specificity, HEK293-CCR1
T1 construct: expressed in transfected cells; host or cells: HEK293; plasmid gift of Dr. Philip M. Murphy (NIAID, NIH)
T1 sequence (P32246 1-355): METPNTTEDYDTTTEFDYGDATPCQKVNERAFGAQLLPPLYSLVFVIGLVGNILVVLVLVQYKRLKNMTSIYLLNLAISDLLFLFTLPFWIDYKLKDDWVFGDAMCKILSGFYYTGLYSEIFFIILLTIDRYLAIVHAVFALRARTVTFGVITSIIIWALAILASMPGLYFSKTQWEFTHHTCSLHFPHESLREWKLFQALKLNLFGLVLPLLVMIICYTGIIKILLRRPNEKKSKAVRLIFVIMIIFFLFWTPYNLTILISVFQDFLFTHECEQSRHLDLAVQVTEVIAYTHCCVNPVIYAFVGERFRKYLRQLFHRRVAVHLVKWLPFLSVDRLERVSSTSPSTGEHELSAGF
Procedure: (§1) HEK293 cells were transfected with different chemokine receptors. Compound 8a with DMSO was diluted to 0.2 mM, 1 mM, 5 mM and 25 mM, and then we used RPMI 1640 medium containing 0.1% BSA for dilution. The final concentration is: 0.2 μM, 1 μM, 5 μM and 25 μM. DMSO was also diluted 1000-fold with 0.1% BSA RPMI 1640 medium. Chemokines was also diluted to an appropriate concentration. The dilutions of Compound 8a, 1‰ DMSO, the corresponding chemokines of different receptors and 0.1% BSA RPMI 1640 medium were placed in the lower chambers (27.5 μl/well). The transfected HEK293 cells were resuspended in the same medium at a density of 1 × 10^6 cells/ml and added to the upper chambers (55 μl/well).

CCR6 = biological target: T2, CCR6 (Homo sapiens, UniProt P51684); assay: Chemotaxis assay for receptor specificity, HEK293-CCR6
T2 construct: expressed in transfected cells; host or cells: HEK293, pcDI-CCR6 plasmid made in the authors' laboratory
T2 sequence (P51684 1-374): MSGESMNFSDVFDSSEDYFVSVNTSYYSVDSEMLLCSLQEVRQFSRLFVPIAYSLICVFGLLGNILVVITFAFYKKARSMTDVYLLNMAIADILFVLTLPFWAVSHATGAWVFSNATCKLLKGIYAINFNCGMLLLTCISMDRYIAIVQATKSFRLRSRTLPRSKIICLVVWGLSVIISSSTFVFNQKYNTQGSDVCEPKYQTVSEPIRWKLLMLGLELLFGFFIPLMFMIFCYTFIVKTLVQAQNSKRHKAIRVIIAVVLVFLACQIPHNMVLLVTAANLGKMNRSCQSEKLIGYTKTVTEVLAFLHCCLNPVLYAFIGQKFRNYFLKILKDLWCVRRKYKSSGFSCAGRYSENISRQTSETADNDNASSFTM
Procedure: as §1

CXCR4 = biological target: T3, CXCR4 (Homo sapiens, UniProt P61073); assay: Chemotaxis assay for receptor specificity, HEK293-CXCR4
T3 construct: expressed in transfected cells; host or cells: HEK293; plasmid from Chinese National Human Genome Center
T3 sequence (P61073 1-356 isoform P61073-2): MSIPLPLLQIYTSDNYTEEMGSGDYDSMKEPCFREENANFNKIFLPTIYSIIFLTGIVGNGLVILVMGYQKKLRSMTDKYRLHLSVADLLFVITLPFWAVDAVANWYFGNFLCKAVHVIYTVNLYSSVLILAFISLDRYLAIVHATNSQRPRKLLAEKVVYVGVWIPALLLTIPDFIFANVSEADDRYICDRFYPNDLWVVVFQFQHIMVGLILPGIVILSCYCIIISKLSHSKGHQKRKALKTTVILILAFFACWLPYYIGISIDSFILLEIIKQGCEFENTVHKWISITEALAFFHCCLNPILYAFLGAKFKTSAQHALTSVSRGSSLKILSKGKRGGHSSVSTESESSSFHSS
Procedure: as §1

chemotaxis effect of the compound on HEK293-CCR1 (CCR1): didn’t exert chemotaxis effects
chemotaxis effect of the compound on HEK293-CCR6 (CCR6): didn’t exert chemotaxis effects
chemotaxis effect of the compound on HEK293-CXCR4 (CXCR4): didn’t exert chemotaxis effects
Compound: O=C(C1CCCCN1)N1CCN(c2nc(Cl)cc(NCc3ccc(Cl)cc3Cl)n2)CC1 (stereo not drawn) [compound 8a, {4-[4-Chloro-6-(2,4-dichloro-benzylamino)-pyrimidin-2-yl]-piperazin-1-yl}-piperidin-2-yl-methanone]
